No end group written: not given here.
Columns and labels:
δPKC = target: T1, δPKC (Mus musculus, UniProt P28867); experiment: MARCKS phosphorylation in wild-type fibroblasts (Western blot); type: cell-based; details: 20% serum, peptides conjugated to TAT47-57, relative to control peptide
T1 construct: endogenous in cells; host or cells: primary fibroblasts from wild-type mice
Source text: (§1) Fibroblasts were isolated from wild-type or δPKC knockout mice (provided by Dr. Robert Messing, Gallo Center, UCSF) as previously described (Disatnik et al., 2004, J. Cell Sci., 117:4469-4479) and maintained in 20% fetal bovine serum.
(§2) Phosphorylation of myristoylated alanine-rich C kinase substrate (MARCKS), a ubiquitous PKC substrate, was monitored by Western blot of total cell lysates, using anti-phosphorylated MARCKS (Cell Signaling, Danvers, Mass.). Anti-MARCKS and anti-δPKC antibodies were obtained from Santa Cruz Biotechnology (Santa Cruz Biotechnology, CA, USA).
(§3) The ΨPDK sequence is found both in PDK and in the PDK-cognate protein, δPKC. It was therefore predicted that ΨPDK mimics inhibitory intra-molecular interaction, and, similar to ΨδRACK, ΨPDK should compete with the inhibitory interaction of PDK and δPKC, and increase δPKC-mediated functions (FIG. 1A). Phosphorylation of myristoylated alanine-rich C-kinase substrate (MARCKS) was used as a marker of PKC activity (Disatnik et al., 2004, J. Cell. Sci., 117:4469-4479). […] To determine the selectivity of the peptides for δPKC, fibroblasts derived from δPKC knock-out mice were also used.

hearts subjected to I/R = experiment: Ex vivo cardiac protection from ischemia/reperfusion (Langendorff; infarct size, CPK release); design: species or system rat; details: for CPK (u/L) / protection from I/R injury: ex vivo I/R; for CPK (u/L): release into perfusate, 1 μM peptide; for cardioprotection / biological activity in ex vivo I/R model (in words): CPK release and JNK phosphorylation as markers; for protection from I/R injury: n=6
Method: An ex vivo model of acute ischemic heart damage was used, which involves a 30 min equilibration period, followed by 30 min of global ischemia, which in turn is followed by 60 min of reperfusion. The hearts were perfused with 1 μM TAT or TAT-conjugated peptide. Normoxic control hearts were subjected to 90 min perfusion in the absence of ischemia. Coronary effluent was collected to determine creatine phosphokinase (CPK) release during the first 30 min of the reperfusion period. At the end of the reperfusion period, hearts were sliced into 1-mm-thick transverse sections and incubated in triphenyltetrazolium chloride solution (TTC, 1% in phosphate buffer, pH 7.4) at 37° C. for 15 min. Infarct size was expressed as a percentage of the risk zone (equivalent to total LV muscle mass) (methods described in Brandman et al., 2007, J. Biol. Chem., 282:4113-4123; Inagaki et al., 2003, Circulation, 108:869-875). […]
(§4) First, I/R-induced infarct size after treatment with ΨPDK or δV1-1 (Inagaki et al., 2003, Circulation, 108:869-875), was smaller than that in hearts treated with the control peptide or with ΨδRACK, the δPKC-specific activator or with δV1-5 (FIG. 6A). Second, similar data were obtained when determining the levels of released creatine phosphokinase (CPK), as a marker of myocardial infarction; CPK levels in the ΨPDK- or δV1-1-treated hearts were similar and were lower than those after treatment with control peptide, ΨδRACK or δV1-5 (FIG. 6B).
(§5) To begin determining the contribution of each of the amino acids on the effect of the peptide, Alanine scanning was used (Brunel et al., 2006, J. Virol., 80:1680-1687; Chen et al., J. Pep. Res., 2000, 56:147-156; Brems et al., 1992, Prot. Eng., 5:527-533) (substituting individual amino acid with an alanine). The resultant ΨPDK peptide analogs were then used in the same model of myocardial infarction, using CPK release and JNK phosphorylation as markers for cardiac injury. CPI release into the perfusates and pJNK in the hearts were determined after I/R in the presence of respective peptides and compared to the levels in hearts subjected to I/R in the presence of the control peptide. None of the peptides having a substitution had any significant biological activity (Table 1).

JNK = JNK phosphorylation in hearts subjected to I/R (Western blot); design: species or system rat; details: ex vivo I/R hearts, 1 μM peptide
Method: An ex vivo model of acute ischemic heart damage was used, which involves a 30 min equilibration period, followed by 30 min of global ischemia, which in turn is followed by 60 min of reperfusion. The hearts were perfused with 1 μM TAT or TAT-conjugated peptide. Normoxic control hearts were subjected to 90 min perfusion in the absence of ischemia. Coronary effluent was collected to determine creatine phosphokinase (CPK) release during the first 30 min of the reperfusion period. At the end of the reperfusion period, hearts were sliced into 1-mm-thick transverse sections and incubated in triphenyltetrazolium chloride solution (TTC, 1% in phosphate buffer, pH 7.4) at 37° C. for 15 min. Infarct size was expressed as a percentage of the risk zone (equivalent to total LV muscle mass) (methods described in Brandman et al., 2007, J. Biol. Chem., 282:4113-4123; Inagaki et al., 2003, Circulation, 108:869-875).
Rat hearts were homogenized in a buffer containing 210 mM mannitol, 70 mM sucrose, 5 mM MOPS and 1 mM EDTA followed by isolation of the mitochondria fraction (described in Churchill et al., 2008, J. Mol. Cell. Cardiol., 46:278-284) and identified by the presence of VDAC (MitoSciences, Eugene, Oreg., USA). The level of phosphorylated and unphosphorylated JNK1/2 was analyzed in the total fraction using respective specific antibodies (Cell Signaling, Danvers, Mass. and Santa Cruz Biotechnology, CA, USA).
as §4, §5

[1] = system: fibroblasts derived from δPKC knock-out mice; experiment: MARCKS phosphorylation in fibroblasts from δPKC knock-out mice; type: cell-based, mouse; details: fibroblasts lacking δPKC
Source text: as §1, §2, §3

T1 sequence (P28867 whole entry): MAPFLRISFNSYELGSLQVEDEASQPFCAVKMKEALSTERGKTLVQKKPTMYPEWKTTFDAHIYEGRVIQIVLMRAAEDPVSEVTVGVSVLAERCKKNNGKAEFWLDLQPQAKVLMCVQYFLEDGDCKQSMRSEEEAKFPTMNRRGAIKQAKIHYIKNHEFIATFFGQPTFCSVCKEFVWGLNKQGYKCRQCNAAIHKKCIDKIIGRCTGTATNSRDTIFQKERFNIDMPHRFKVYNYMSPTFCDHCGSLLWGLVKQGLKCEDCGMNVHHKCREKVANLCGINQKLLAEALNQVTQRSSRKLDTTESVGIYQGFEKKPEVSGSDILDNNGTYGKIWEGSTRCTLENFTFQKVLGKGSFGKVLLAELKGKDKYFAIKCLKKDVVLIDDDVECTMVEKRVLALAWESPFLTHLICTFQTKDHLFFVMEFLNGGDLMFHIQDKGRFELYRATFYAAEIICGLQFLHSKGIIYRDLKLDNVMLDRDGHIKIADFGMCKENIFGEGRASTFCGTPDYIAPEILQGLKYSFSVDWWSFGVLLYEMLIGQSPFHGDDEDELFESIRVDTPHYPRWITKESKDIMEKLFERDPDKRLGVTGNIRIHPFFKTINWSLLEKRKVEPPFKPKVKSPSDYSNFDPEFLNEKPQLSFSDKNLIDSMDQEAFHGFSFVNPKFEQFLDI

| Compound | CPK (u/L) (hearts subjected to I/R) | p-JNK/total JNK (JNK) | also measured |
| --- | --- | --- | --- |
| CCCCCCCCCCCCCC(=O)O[C@@H]1[C@@H](C)[C@@]2(O)[C@@H](C=C(CO)C[C@]3(O)C(=O)C(C)=C[C@@H]23)[C@@H]2C(C)(C)[C@]12OC(C)=O [PMA, Phorbol 12-myristate 13-acetate, reference compound] | – | – | MARCKS phosphorylation (δPKC): caused increased MARCKS phosphorylation |
| AASTER [p192] | 1272 ± 172 | 0.7 ± 0.10 | – |
| ALATER [p193] | 1155 ± 299 | 0.7 ± 0.03 | – |
| ALS(p)T(p)ER [p199] | 842 ± 258 | 0.6 ± 0.02 | cardioprotection / biological activity in ex vivo I/R model (in words) (hearts subjected to I/R): None of the phosphorylated peptides (p197, 198, 199) affected cardioprotection |
| ALS(p)TER [p198] | 1169 ± 293 | 0.9 ± 0.10 | cardioprotection / biological activity in ex vivo I/R model (in words) (hearts subjected to I/R): None of the phosphorylated peptides (p197, 198, 199) affected cardioprotection |
| ALSAER [p194] | 886 ± 211 | 0.6 ± 0.10 | – |
| ALST(p)ER [p197] | 803 ± 131 | 0.7 ± 0.10 | cardioprotection / biological activity in ex vivo I/R model (in words) (hearts subjected to I/R): None of the phosphorylated peptides (p197, 198, 199) affected cardioprotection |
| ALSTAR [p195] | 913 ± 199 | 0.7 ± 0.10 | – |
| ALSTEA [p196] | 926 ± 265 | 0.9 ± 0.10 | – |
| GKTLVQ (not fully specified (C-terminus); also: TAT47-57 conjugated via disulfide to C-terminal Cys) [δV1-5, reference compound] | – | – | MARCKS phosphorylation [1]: increased MARCKS phosphorylation; MARCKS phosphorylation (δPKC): increased MARCKS phosphorylation |
| YGRKKRRQRRRGSGALSTER [TAT-GSG-ΨPDK] | – | – | protection from I/R injury (hearts subjected to I/R): 73% |
| ΨPDK-Cs-sC-TAT: SEQ ID NO. 2 linked to SEQ ID NO. 33 (TAT) via a disulfide bond (chain 1 ALSTER; chain 2 YGRKKRRQRRR; not fully specified; disulfide bond linkage) | – | – | protection from I/R injury (hearts subjected to I/R): 45% |
